Results as given in EP1158000A1, “Crystal structure data of cystalysin and use thereof for the design and preparation of inhibitor molecules” (priority 2000, dated 2001).
Like-named read-outs stand apart in the source and are kept apart here.

Assays:
[1] = tested on: cystalysin; test: Spectral measurement of cystalysin after treatment with AVG; assay type: biochemical, Treponema denticola; settings: chromophore at 336 nm formed simultaneously, spectra at 20°C in 100 mM phosphate buffer
Procedure: PLP-dependent enzymes catalyzing β-elimination reactions are known to be inhibited by a number of β,γ-unsaturated amino acids like the natural toxins rhizobitoxin (Owens et al., 1968) and L-aminoethoxyvinylglycine (AVG) (Pruess et al., 1974), that act as so-called slow-binding inhibitors (Morrison and Walsh, 1988). […] Spectral and fluorescence measurements lead to similar observations for cystalysin after incubation with AVG (Figure 4A). […] The inhibitor is mainly bound by hydrogen bonds to its carboxylate oxygens which originate from Ala39, Asn 175 and Arg369 (Figure 4C). […] Hydrophobic interactions are with Tyr64* and Phe273* which are in van-der-Waals contact to the carbon atoms CFI, CEI and CGI. Contrary for CBL, the amino-tail of the inhibitor is not bound to Tyr123, but stretched out in opposite direction towards a large hydrophobic cavity formed by the residues Leu17, Val38, Typ64* and Phe273* that is absent in CBL. […]
(A) The spectra of uncomplexed cystalysin and cystalysin after treatment with AVG, recorded at 20°C in 100 mM phosphate buffer. (B) Final 2Fo-Fc electron density of the PLP-AVG complex (yellow) and the intermediate protein vicinity (color-coding by atom type), contoured at 1.2 σ and calculated at 2.5 Å resolution. […]

[2] = tested on: cystalysin; test: Loss of cystalysin enzyme activity through AVG; assay type: biochemical, Treponema denticola; settings: dead end ketimine PLP derivative formed with AVG
Procedure: Overall, the PLP cofactor remains fixed in position with only the pyridine ring rotated slightly (≤ 10°), while no major structural changes regarding domain movement have been observed. These findings are contradicting an open/closed mechanism upon substrate binding, since the cystalysin-AVG structure should resemble the physiological enzyme-substrate complex. Due to the similarities in inhibition pattern and spectral changes, AVG should act on cystalysin in a similar manner as reported for CBL (Clausen et al., 1997). After transaldimination, a proton transfer from C^α to C4' is mediated by the deprotonated ε-amino group of the released Lys238, instead of protonating the leaving group. The resulting "dead end" ketimine PLP derivative is responsible for the observed 336 nm-chromophore and the total loss of enzyme activity. The inability of cystalysin to catalyze a transamination of this ketimine also accounts for the high stability of the final intermediate.

[3] = target: cystathionine β-lyase (CBL) (Escherichia coli, UniProt P06721); settings: upon treatment with AVG; cited from earlier work
[4] = tested on: cystalysin; settings: substrate cleavage by cystalysin; cited from earlier work
[5] = target: T1, PLP-dependent β-cystathionase (osteotoxin) (Bordetella avium, UniProt Q07703); settings: cited from earlier work
T1 sequence (Q07703 2-396 limits assumed): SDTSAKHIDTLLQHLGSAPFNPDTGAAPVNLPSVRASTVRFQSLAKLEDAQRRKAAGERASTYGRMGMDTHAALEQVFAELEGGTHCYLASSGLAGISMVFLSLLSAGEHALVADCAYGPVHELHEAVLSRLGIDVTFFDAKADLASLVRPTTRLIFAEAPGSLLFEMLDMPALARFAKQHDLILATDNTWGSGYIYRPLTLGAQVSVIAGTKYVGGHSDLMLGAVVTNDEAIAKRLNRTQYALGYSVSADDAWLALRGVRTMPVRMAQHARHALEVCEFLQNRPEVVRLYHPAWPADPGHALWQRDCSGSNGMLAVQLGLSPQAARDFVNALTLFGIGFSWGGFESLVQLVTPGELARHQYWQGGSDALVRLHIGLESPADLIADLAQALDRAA

cystathionine β-lyase (CBL), sequence (P06721 2-395): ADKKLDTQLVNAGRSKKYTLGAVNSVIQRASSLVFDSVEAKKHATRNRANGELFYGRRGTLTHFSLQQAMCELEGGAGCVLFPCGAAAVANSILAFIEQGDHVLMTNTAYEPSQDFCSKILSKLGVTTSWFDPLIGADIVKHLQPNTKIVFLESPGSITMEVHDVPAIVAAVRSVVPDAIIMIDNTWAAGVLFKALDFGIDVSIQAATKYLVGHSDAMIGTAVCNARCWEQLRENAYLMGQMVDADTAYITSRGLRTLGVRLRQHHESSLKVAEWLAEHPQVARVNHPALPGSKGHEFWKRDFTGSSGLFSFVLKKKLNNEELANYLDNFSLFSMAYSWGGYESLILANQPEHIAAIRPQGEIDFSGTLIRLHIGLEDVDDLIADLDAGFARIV

SMILES	pyridoxaldimine absorbance of the active enzyme at 419 nm [1]	enzyme activity [2]	interaction with CBL [3]	Kcat [4] [s⁻¹]	Km [4] [mM]	Km ([5]; highest affinity substrate) [mM]	Km ([5]; weak affinity substrate) [mM]
NCCO/C=C/[C@H](N)C(=O)O [AVG, L-aminoethoxyvinylglycine]	rapid and complete loss	total loss	time-dependent formation of a long-lived, slowly dissociating enzyme-inhibitor compolex				
N[C@@H](CS)C(=O)O [cysteine]				12	3.6	0.077	5
